Measurements reported in ChEMBL document CHEMBL3421625, “Discovery and optimization of novel antagonists to the human neurokinin-3 receptor for the treatment of sex-hormone disorders (Part I)” (J Med Chem, 2015).
Calls of active or inactive are those of the source. The rule behind the calls is not given here.

Legend:
[1] = in vivo; conditions: Sprague-Dawley, rat, iv, 1 mg/kg
[2] = biological target: T1, Substance-K receptor (Homo sapiens, UniProt P21452); experiment: Displacement of [125I]-neurokinin A from human NK2R after 90 mins by scintillation counting analysis
T1 sequence (P21452 whole entry): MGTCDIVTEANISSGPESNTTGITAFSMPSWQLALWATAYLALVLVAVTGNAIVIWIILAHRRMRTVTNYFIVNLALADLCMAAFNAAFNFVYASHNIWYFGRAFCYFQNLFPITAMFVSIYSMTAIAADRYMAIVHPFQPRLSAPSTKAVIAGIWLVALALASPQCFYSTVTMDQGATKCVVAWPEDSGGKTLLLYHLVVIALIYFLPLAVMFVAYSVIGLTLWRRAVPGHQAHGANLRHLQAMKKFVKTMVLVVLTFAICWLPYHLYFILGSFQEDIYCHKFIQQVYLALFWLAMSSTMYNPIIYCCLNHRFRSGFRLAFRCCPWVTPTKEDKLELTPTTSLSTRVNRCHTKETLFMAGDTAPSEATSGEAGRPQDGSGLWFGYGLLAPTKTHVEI

[3] = biological target: T2, Neuromedin-K receptor (Homo sapiens, UniProt P29371)
T2 sequence (P29371 whole entry): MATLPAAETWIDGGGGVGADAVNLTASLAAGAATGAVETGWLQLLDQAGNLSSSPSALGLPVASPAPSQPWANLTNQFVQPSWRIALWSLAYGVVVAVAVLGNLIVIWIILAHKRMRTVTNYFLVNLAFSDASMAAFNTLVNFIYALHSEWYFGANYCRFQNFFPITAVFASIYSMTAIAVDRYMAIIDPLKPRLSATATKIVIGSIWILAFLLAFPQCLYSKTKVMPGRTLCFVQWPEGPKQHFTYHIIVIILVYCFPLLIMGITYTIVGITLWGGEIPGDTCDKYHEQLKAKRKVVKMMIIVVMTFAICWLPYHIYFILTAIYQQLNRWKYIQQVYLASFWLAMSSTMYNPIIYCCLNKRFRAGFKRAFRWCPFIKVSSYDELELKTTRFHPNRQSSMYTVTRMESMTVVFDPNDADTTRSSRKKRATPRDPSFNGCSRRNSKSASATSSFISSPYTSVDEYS

[4] = in vivo; conditions: Sprague-Dawley, rat, po, 3 mg/kg
[5] = tested on: Rattus norvegicus; experiment: In vivo inhibition of NK3R in castrated Sprague-Dawley rat assessed as decrease in serum luteinizing hormone level at 10 mg/kg, iv by radioimmunoassay relative to control; assay type: functional
[6] = biological target: T2, Neuromedin-K receptor; experiment: biochemical
Description: Displacement of [3H]-SB222200 from recombinant human NK3R expressed in CHO cell membranes after 90 mins by scintillation counting analysis

[7] = tested on: Rattus norvegicus; experiment: Hepatotoxicity in Sprague-Dawley rat assessed as effect on ALT level at 30 mg/kg, po bid administered for 5 days; assay type: toxicity, organism-based; set-up: dose 30 mg/kg, route oral; conditions: in vivo, 120 h
[8] = tested on: Cynomolgus monkey; experiment: Unbound AUC in castrated cynomolgus monkey at 20 mg/kg, po by LC-MS/MS analysis; assay type: ADME, organism-based, Macaca fascicularis; set-up: dose 20 mg/kg, route oral; conditions: in vivo
[9] = tested on: Cynomolgus monkey; experiment: Unbound AUC in castrated cynomolgus monkey at 5 mg/kg, po by LC-MS/MS analysis; assay type: ADME, organism-based, Macaca fascicularis; set-up: dose 5 mg/kg, route oral; conditions: in vivo
[10] = tested on: Cynomolgus monkey; experiment: Unbound Cmax in castrated cynomolgus monkey at 5 mg/kg, po by LC-MS/MS analysis; assay type: ADME, organism-based, Macaca fascicularis; set-up: dose 5 mg/kg, route oral; conditions: in vivo
[11] = Apparent permeability across apical to basolateral side in human Caco2 cells in presence of 0.1% bovine serum albumin; conditions: Caco-2
[12] = tested on: Cynomolgus monkey; experiment: Unbound AUC in castrated cynomolgus monkey at 10 mg/kg, iv by LC-MS/MS analysis; assay type: ADME, organism-based, Macaca fascicularis; set-up: dose 10 mg/kg, route intravenous; conditions: in vivo
[13] = tested on: Rattus norvegicus; experiment: Drug uptake in Sprague-Dawley rat at 30 mg/kg, po bid administered for 5 days; assay type: ADME, organism-based; set-up: dose 30 mg/kg, route oral; conditions: in vivo, 120 h
[14] = tested on: Rattus norvegicus; experiment: Hepatotoxicity in Sprague-Dawley rat assessed as effect on bilirubin level at 30 mg/kg, po bid administered for 5 days; assay type: toxicity, organism-based; set-up: dose 30 mg/kg, route oral; conditions: in vivo, 120 h
[15] = tested on: Rattus norvegicus; experiment: Hepatotoxicity in Sprague-Dawley rat assessed as effect on AST level at 30 mg/kg, po bid administered for 5 days; assay type: toxicity, organism-based; set-up: dose 30 mg/kg, route oral; conditions: in vivo, 120 h
[16] = Tmax in castrated cynomolgus monkey at 5 mg/kg, po by LC-MS/MS analysis; assay type: ADME, organism-based, Macaca fascicularis; set-up: dose 5 mg/kg, route oral; conditions: male, in vivo
[17] = tested on: Cynomolgus monkey; experiment: Unbound Cmax in castrated cynomolgus monkey at 20 mg/kg, po by LC-MS/MS analysis; assay type: ADME, organism-based, Macaca fascicularis; set-up: dose 20 mg/kg, route oral; conditions: in vivo
[18] = biological target: Kappa-type opioid receptor (Homo sapiens) (UniProt P41145); experiment: Inhibition of KOR (unknown origin) at 10 uM relative to control
Kappa-type opioid receptor (Homo sapiens), sequence (P41145 whole entry): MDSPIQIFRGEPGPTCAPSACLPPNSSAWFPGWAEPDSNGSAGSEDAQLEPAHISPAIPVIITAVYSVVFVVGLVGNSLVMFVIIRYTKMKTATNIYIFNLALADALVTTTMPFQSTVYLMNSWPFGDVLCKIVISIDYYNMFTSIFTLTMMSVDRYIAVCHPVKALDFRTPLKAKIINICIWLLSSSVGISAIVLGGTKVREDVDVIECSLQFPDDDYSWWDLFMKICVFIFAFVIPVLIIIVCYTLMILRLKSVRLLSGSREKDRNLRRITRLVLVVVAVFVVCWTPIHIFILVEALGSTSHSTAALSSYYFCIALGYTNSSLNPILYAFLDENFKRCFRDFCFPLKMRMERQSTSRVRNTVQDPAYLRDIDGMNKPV

[19] = biological target: Voltage-gated inwardly rectifying potassium channel KCNH2 (Homo sapiens, UniProt Q12809)
Voltage-gated inwardly rectifying potassium channel KCNH2, sequence (Q12809 whole entry): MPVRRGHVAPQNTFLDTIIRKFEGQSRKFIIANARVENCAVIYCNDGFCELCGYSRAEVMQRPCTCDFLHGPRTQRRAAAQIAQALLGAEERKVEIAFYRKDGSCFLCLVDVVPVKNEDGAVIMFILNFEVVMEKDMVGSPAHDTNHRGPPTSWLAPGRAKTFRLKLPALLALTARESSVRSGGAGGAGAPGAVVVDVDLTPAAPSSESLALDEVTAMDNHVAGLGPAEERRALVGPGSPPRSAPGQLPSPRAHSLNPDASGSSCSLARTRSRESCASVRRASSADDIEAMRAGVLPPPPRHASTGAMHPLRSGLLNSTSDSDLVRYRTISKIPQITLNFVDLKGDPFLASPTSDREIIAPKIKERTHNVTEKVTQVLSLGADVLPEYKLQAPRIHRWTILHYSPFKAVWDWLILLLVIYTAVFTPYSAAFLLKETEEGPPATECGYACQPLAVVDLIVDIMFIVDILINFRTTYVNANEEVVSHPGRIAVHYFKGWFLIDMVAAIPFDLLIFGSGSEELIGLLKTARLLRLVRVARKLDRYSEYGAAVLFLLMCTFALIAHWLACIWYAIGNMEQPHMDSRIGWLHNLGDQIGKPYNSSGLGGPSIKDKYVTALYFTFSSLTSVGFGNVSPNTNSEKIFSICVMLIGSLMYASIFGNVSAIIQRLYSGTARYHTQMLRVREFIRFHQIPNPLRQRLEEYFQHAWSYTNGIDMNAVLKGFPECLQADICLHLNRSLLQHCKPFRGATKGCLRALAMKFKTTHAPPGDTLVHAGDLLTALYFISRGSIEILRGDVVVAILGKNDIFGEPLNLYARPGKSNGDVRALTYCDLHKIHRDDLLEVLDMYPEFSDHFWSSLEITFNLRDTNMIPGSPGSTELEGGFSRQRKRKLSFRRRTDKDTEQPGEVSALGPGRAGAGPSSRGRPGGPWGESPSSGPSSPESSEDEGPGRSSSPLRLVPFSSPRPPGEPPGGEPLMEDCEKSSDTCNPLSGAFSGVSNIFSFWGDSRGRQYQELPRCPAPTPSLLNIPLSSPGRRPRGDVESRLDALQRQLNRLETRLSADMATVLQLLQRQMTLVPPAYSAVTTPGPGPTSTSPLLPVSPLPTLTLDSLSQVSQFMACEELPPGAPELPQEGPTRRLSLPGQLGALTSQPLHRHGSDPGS
Description: Inhibition of human ERG expressed in HEK293 cells after 5 mins by patch-clamp assay

[20] = Volume of distribution at steady state in castrated cynomolgus monkey at 10 mg/kg, iv by LC-MS/MS analysis; conditions: male, in vivo
[21] = Tmax in castrated cynomolgus monkey at 20 mg/kg, po by LC-MS/MS analysis; assay type: ADME, organism-based, Macaca fascicularis; set-up: dose 20 mg/kg, route oral; conditions: male, in vivo
[22] = Total systemic clearance in castrated cynomolgus monkey at 10 mg/kg, iv by LC-MS/MS analysis; assay type: ADME, organism-based, Macaca fascicularis; set-up: dose 10 mg/kg, route intravenous; conditions: male, in vivo
[23] = biological target: Neuropeptide FF receptor 1 (Homo sapiens) (UniProt Q9GZQ6); experiment: Inhibition of NPFF1 (unknown origin) at 10 uM relative to control
Neuropeptide FF receptor 1 (Homo sapiens), sequence (Q9GZQ6 whole entry): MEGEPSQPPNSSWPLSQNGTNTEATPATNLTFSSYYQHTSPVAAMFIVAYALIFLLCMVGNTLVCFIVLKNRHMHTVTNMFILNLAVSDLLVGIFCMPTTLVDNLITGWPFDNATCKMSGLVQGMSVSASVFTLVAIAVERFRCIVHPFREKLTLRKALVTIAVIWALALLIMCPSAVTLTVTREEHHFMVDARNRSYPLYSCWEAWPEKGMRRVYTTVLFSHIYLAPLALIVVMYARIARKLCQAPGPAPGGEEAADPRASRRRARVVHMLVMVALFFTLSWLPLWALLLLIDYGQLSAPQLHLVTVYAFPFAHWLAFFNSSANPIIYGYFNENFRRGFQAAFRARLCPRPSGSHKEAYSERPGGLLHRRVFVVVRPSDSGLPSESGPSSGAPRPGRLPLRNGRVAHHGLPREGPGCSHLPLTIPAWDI

[24] = tested on: Cynomolgus monkey; experiment: In vivo inhibition of NK3R in castrated cynomolgus monkey assessed as decrease in plasma luteinizing hormone level at 20 mg/kg, po measured at 90 to 300 mins; assay type: functional, organism-based; set-up: dose 20 mg/kg; conditions: Macaca fascicularis
[25] = tested on: Cynomolgus monkey; experiment: In vivo inhibition of NK3R in castrated cynomolgus monkey assessed as decrease in plasma luteinizing hormone level at 20 mg/kg, po measured at 90 mins relative to control; assay type: functional; conditions: Macaca fascicularis, 1.5 h
[26] = tested on: Cynomolgus monkey; experiment: In vivo inhibition of NK3R in castrated cynomolgus monkey assessed as decrease in plasma luteinizing hormone level at 20 mg/kg, po measured at 480 mins; assay type: functional, organism-based; set-up: dose 20 mg/kg; conditions: Macaca fascicularis

SMILES: C[C@@H]1c2nnc(-c3csc(-c4ccc(F)cc4F)n3)n2CCN1C(=O)c1ccc(-c2cccs2)cc1
- half-life [1]: 321 min
- Ki [2]: 794 nM
- IC50 [3]: 20 nM
- bioavailability [4]: 17%
- inhibition in vivo at 10 mg/kg [5]: 50%
- Ki [6]: 2 nM

SMILES: Cc1nc(-c2nnc3n2CCN(C(=O)c2ccc(-c4cccs4)cc2)[C@@H]3C)cs1
- Activity [7]: Non-toxic
- fAUC [8]: 526 nM·h
- fAUC [9]: 64.6 nM·h
- fCmax [10]: 17.9 nM
- Papp A→B [11]: 48.2 ×10⁻⁶ cm/s
- fAUC [12]: 1055 nM·h
- Drug uptake [13]: Not Active
- Activity [14]: Non-toxic
- Activity [15]: Non-toxic
- Tmax [16]: 1.5 h
- fCmax [17]: 237 nM
- inhibition [18]: 25%
- IC50 [19]: 24 µM
- Vd [20]: 1.52 L/kg
- Tmax [21]: 1 h
- clearance [22]: 16.5 mL/min/kg
- inhibition [23]: 18%
- inhibition [24]: Active
- inhibition in vivo at 20 mg/kg [25]: 40%
- inhibition [26]: inactive
